Drawing on ChEMBL document CHEMBL4513101, “Naegleria gruberi Pathogen Box compounds screening” (2021), this text covers inhibition for 78 compounds.

SMILES strings stand for the structures. Active and inactive are the calls of the source. No stated cut-off is given here; in the data, active = inhibition of 80% or more and inactive = less.

The test has as its system Naegleria gruberi. As to the kind of experiment: microbe, parasite or virus in culture. It is filed as functional. The following applies: NEG-M, CONC 10 uM.
Description: Growth inhibiting activity of Naegleria gruberi in vitro
As for `O=C(NC1CC1)c1ccc(N2CCOc3ccc(Cl)cc32)s1`, the inhibition (as a rule, how much of the control response was suppressed) at 10 µM is given as 27.6% (not active).

For the compound `CC(C)(CN)c1nc(-c2ccc(Cl)c(O)c2)c(-c2ccnc(N)n2)[nH]1`, the inhibition at 10 µM is reported as 6.4% (not active).

For the compound `OCCc1ccc(Nc2nccc(-c3nnc4ccccn34)n2)cc1`, the inhibition at 10 µM is reported as 18.7% (not active).

In the case of `CN1CCN(S(=O)(=O)c2ccc(-c3ccc4c(Nc5ncc(Cl)cn5)ccnc4c3)cc2)CC1`, the inhibition at 10 µM is listed as 43.6% (not active).

As for `COc1ccc(C2=NCCN2)cc1-c1cn(-c2cccc(C3=NCCN3)c2)nn1`, the inhibition at 10 µM is 21.7% (not active).

For the compound `NCC(c1cccs1)S(=O)(=O)c1ccccc1` (stereo not drawn), the inhibition at 10 µM is recorded as 7.1% (not active).

For the compound `C[C@H]1COc2c(N3CCN(C)CC3)c(F)cc3c(=O)c(C(=O)O)cn1c23` [LEVOFLOXACIN], the inhibition at 10 µM was 0% (not active).

Turning to `O=C(NCCc1c[nH]c2ccccc12)c1cc2ccccc2oc1=O`, the inhibition at 10 µM is 33.7% (not active).

Take `CC(C)(C)OC(=O)N1CCN(c2cc(-c3ccc(Oc4ccccc4)cc3)n[nH]2)CC1`: the inhibition at 10 µM is 65.7% (not active).

On to `c1cc(C2=NCCN2)cc(-c2cc(-c3ccc(C4=NCCN4)cc3)no2)c1`, for which the inhibition at 10 µM is recorded as 24.2% (not active).

In the case of `Cc1ccc(S(=O)(=O)Nc2ccc(CN3CCN(C(=O)c4cccc(C#N)c4)CC3)cc2)cc1`, the inhibition at 10 µM is 19.9% (not active).

On to `Nc1nccc2ccc(Oc3ccncc3)cc12`, for which the inhibition at 10 µM was 3% (not active).

Regarding `COc1ccc(CN2CCOc3ccc(C(C)(O)CN(C)C)cc3C2)cc1C` (stereo not drawn), the inhibition at 10 µM is listed as 26.3% (not active).

In the case of `Cc1nc(-c2cccc(NCc3ccccc3)c2)[nH]c1C`, the inhibition at 10 µM is reported as 8.1% (not active).

On to `COc1cc(C2=NCCN2)ccc1-c1cn(-c2cccc(C3=NCCN3)c2)nn1`, for which the inhibition at 10 µM was 20.1% (not active).

As for `Cc1ccc(-c2cc(C(=O)Nc3cccnc3)c3cc(Br)ccc3n2)cc1`, the inhibition at 10 µM is 16.8% (not active).

In the case of `COc1cc(OC)cc(C(=O)NCC2Cc3cc(Cl)cc(-c4ccncc4)c3O2)c1` (stereo not drawn), the inhibition at 10 µM is reported as 20.9% (not active).

As for `Cc1cc(NC(=O)c2ccc(Oc3ccc(Cl)cc3O)o2)no1`, the inhibition at 10 µM was 0% (not active).

With `Cc1cc(Cl)ccc1NC(=O)CCc1ccc(S(=O)(=O)NCC(C)C)cc1`, the inhibition at 10 µM was 13.9% (not active).

As to `Nc1c2c(nc3sc4c(c13)CCCC4)CCCC2`, the inhibition at 10 µM is listed as 48.3% (not active).

Consider `Cc1noc(C)c1C(=O)N1CCCC(c2[nH]c3c(C)cccc3c2-c2ccncc2)C1` (stereo not drawn), for which the inhibition at 10 µM is given as 27.1% (not active).

Consider `COc1ccc(Oc2ccc([C@@H](C)N(C)c3ncc4c(N)nc(N)nc4n3)cc2)cc1`, for which the inhibition at 10 µM is given as 25.6% (not active).

Consider `O=C(NCCN1CCCC1)c1cc(NCCCCN2CCC(F)(F)CC2)nc2ccc(Cl)cc12`, for which the inhibition at 10 µM was 4.3% (not active).

For `Cc1noc(C)c1COc1cccc(C(=O)N=c2[nH]cccc2C)c1`, the inhibition at 10 µM is reported as 36.7% (not active).

With `Cc1[nH]c2ccccc2c1C(c1cccs1)N1CCN(C)CC1` (stereo not drawn), the inhibition at 10 µM is 23.9% (not active).

As to `CO[C@H]1/C=C\O[C@@]2(C)Oc3c(C)c(O)c4c(O)c(/c(=C/NN5CCN(C)CC5)c(O)c4c3C2=O)=N\C(=O)/C(C)=C\C=C/[C@H](C)[C@H](O)[C@@H](C)[C@@H](O)[C@@H](C)[C@H](OC(C)=O)[C@@H]1C`, the inhibition at 10 µM is 0% (not active).

Consider `NC(CC(=O)c1ccc(Cl)cc1Cl)C(Cl)(Cl)Cl` (stereo not drawn), for which the inhibition at 10 µM was 11.7% (not active).

Take `N=C(N)Nc1ccc(-c2ccc(-c3ccc(NC(=N)N)cc3Cl)o2)c(Cl)c1`: the inhibition at 10 µM is given as 24% (not active).

Turning to `O=C(NC1CCCCC1)N1CCN(Cc2ccc3c(c2)OCO3)CC1`, the inhibition at 10 µM was 31.3% (not active).

For the compound `COc1ccc(OC(C)C(=O)Nc2ccc(Cl)cc2C)cc1` (stereo not drawn), the inhibition at 10 µM is 34% (not active).

Regarding `FC(F)(F)c1nnc2ccc(Cl)nn12`, the inhibition at 10 µM is 16.8% (not active).

As to `Cc1nn(C(=O)Nc2cccc(C(F)(F)F)c2)c(C)c1Sc1ncccn1`, the inhibition at 10 µM is on record as 16.7% (not active).

Turning to `O=C(Nc1cccc(-c2ccc(NCCCN3CCCC3)nc2)c1)c1ccccc1`, the inhibition at 10 µM is reported as 8.2% (not active).

Regarding `Nc1ncc(-c2cn[nH]c2)cc1-c1nc2cc(Cl)cnc2[nH]1`, the inhibition at 10 µM is reported as 10.2% (not active).

As to `COc1cccn2c(C(=O)N3CCCCC3)c(C(F)(F)F)nc12`, the inhibition at 10 µM is 17% (not active).

`CN1CCCN(C(c2ccccc2)c2ccc(Cl)cc2)CC1` (stereo not drawn) [HOMOCHLORCYCLIZINE]: the inhibition at 10 µM is listed as 11.6% (not active).

In the case of `CCCCc1ccc(NC(=O)Nc2ccc(O[C@H]3CCCC[C@@H]3N(C)c3ccccc3)c(F)c2)cc1`, the inhibition at 10 µM is listed as 41.1% (not active).

For `Cc1ccc(Oc2ccc(NC(=O)CNc3ccccc3N3CCCC3=O)cc2)cc1`, the inhibition at 10 µM is listed as 18.8% (not active).

On to `Cc1cc(Nc2ccncc2)n2nc(C)c(-c3ccccc3Cl)c2n1`, for which the inhibition at 10 µM was 27.7% (not active).

For `O=C(Nc1nc(-c2ccccn2)cs1)C1CC1c1ccccc1F` (stereo not drawn), the inhibition at 10 µM is given as 46.3% (not active).

For `COc1cccc(-n2nnnc2S(C)(=O)=O)c1`, the inhibition at 10 µM is reported as 78.8% (not active).

As to `CCCNC(=O)N1CCC2(CC1)CC(=O)c1cc(C)ccc1O2`, the inhibition at 10 µM was 11.6% (not active).

As to `O=C(Nc1ccc(N2CCNCC2)cc1)c1ccn2ncc(-c3cccc(Cl)c3)c2n1`, the inhibition at 10 µM is 18.8% (not active).

Regarding `FC(F)(F)c1cc(NCCc2ccccc2)nc(-c2ccccn2)n1`, the inhibition at 10 µM is given as 24.6% (not active).

As for `COc1nc2ccc(Br)cc2cc1[C@@H](c1ccccc1)[C@@](O)(CCN(C)C)c1cccc2ccccc12` [BEDAQUILINE], the inhibition at 10 µM is recorded as 56.3% (not active).

On to `COc1ccc(-c2cnc3cnc(-c4cccc(OC(C)C)c4)cn23)cc1`, for which the inhibition at 10 µM is listed as 9.4% (not active).

`CCCS(=O)(=O)N1CCC(CO)(Cc2ccccc2C(F)(F)F)CC1`: the inhibition at 10 µM is recorded as 19% (not active).

`O=C(Nc1nnc(S)s1)c1cc(Br)ccc1Cl`: the inhibition at 10 µM is 11.5% (not active).

Turning to `O=C(Nc1nnc(-c2ccc(Cl)s2)o1)c1ccc(Cl)s1`, the inhibition at 10 µM is reported as 21.9% (not active).

With `Clc1ccc(CN2CCN(C3=NCCN3)CC2)cc1Cl`, the inhibition at 10 µM is listed as 23.3% (not active).

Regarding `CC(C)(C(=O)Nc1ccc(F)cc1)n1cc(-c2ccccc2F)cn1`, the inhibition at 10 µM is recorded as 30.2% (not active).

Consider `CCCCCCCCCCCCCCCCOP(=O)([O-])OCC[N+](C)(C)C` [MILTEFOSINE], for which the inhibition at 10 µM is reported as 4% (not active).

As to `CC(C)(C)n1nc(Cc2cccc3ccccc23)c2c(N)ncnc21`, the inhibition at 10 µM is 13.8% (not active).

As for `CN(C)c1cc(NC(=O)Nc2ccccc2)c2ccccc2n1`, the inhibition at 10 µM was 22.3% (not active).

For the compound `C[C@H](C(N)=O)N1CCCC[C@@H]1c1ccc(OCc2cccc(F)c2)cc1`, the inhibition at 10 µM is given as 13.9% (not active).

With `CCCc1ccc(S(=O)(=O)Nc2ccc(CN3CCN(CC4CC4)CC3)cc2)cc1`, the inhibition at 10 µM was 30.3% (not active).

Consider `O=C(c1ccc(F)cc1)N(CCNc1ccccc1)c1ccccc1`, for which the inhibition at 10 µM is recorded as 24.1% (not active).

With `CC(C)(C)c1ccc(N[C@@H]2CCCC[C@H]2NC(=O)c2ccco2)cc1`, the inhibition at 10 µM is 8.8% (not active).

For the compound `CS(=O)(=O)N1CCC(CCn2nc(Cc3cccc4ccccc34)c3c(N)ncnc32)CC1`, the inhibition at 10 µM is on record as 26.2% (not active).

On to `Cc1nn(Cc2ccccc2)c(Cl)c1C(=O)NC1CCCCCC1`, for which the inhibition at 10 µM is 36.1% (not active).

For the compound `NC(=O)c1cc(Br)ccc1OCCOc1ccccc1`, the inhibition at 10 µM was 36.1% (not active).

Take `Cc1ccc2nc(C)c(-c3ccn(Cc4ccccc4)n3)n2c1`: the inhibition at 10 µM is 9.5% (not active).

As for `CC(C)(C)[C@H]1CC[C@H](CC2=C(O)C(=O)c3ccccc3C2=O)CC1` [BUPARVAQUONE], the inhibition at 10 µM was 92.9% (active).

As to `CCS(=O)(=O)N(Cc1ccco1)Cc1cc2ccc(C)cc2nc1O`, the inhibition at 10 µM is reported as 0% (not active).

For the compound `O=C(C1CCN(c2cc(-n3cccc3)ncn2)CC1)N1CCc2ccccc2C1`, the inhibition at 10 µM is 13.5% (not active).

For the compound `CC(C)n1nc(-c2cc3c(Cl)cccc3[nH]2)c2c(N)ncnc21`, the inhibition at 10 µM is 72.2% (not active).

As to `O=C1O[C@@H](CO)CN1c1cc(F)c(C2=CCN(Cc3ccccc3)CC2)c(F)c1`, the inhibition at 10 µM is reported as 8.3% (not active).

Take `COc1ccccc1C(C)NCC(=O)Nc1cc(C(F)(F)F)ccc1Cl` (stereo not drawn): the inhibition at 10 µM is on record as 49.5% (not active).

On to `c1ccc2c(c1)CN(CC1CC1)CC1(CCN(Cc3c[nH]c4cnccc34)CC1)O2`, for which the inhibition at 10 µM is recorded as 4.4% (not active).

Turning to `O=C(NCc1cc(Cl)cc(Cl)c1)c1c(C(F)(F)F)nc2ccccn12`, the inhibition at 10 µM is on record as 28.4% (not active).

On to `COC(=O)c1ccc(F)cc1NS(=O)(=O)c1cccc(-c2cnn(Cc3ccccc3)c2)c1`, for which the inhibition at 10 µM is on record as 26.2% (not active).

Turning to `C[C@@H]1[C@H](O)[C@@H](C)/C=C/C=C/C=C/C=C/C=C/C=C/C=C/[C@H](O[C@@H]2O[C@H](C)[C@@H](O)[C@H](N)[C@@H]2O)C[C@@H]2O[C@](O)(C[C@@H](O)C[C@@H](O)[C@H](O)CC[C@@H](O)C[C@@H](O)CC(=O)O[C@H]1C)C[C@H](O)[C@H]2C(=O)O` [AMPHOTERICIN B], the inhibition at 10 µM is listed as 2.4% (not active).

As to `O=C1[C@@H](Oc2ccccc2)[C@@H](c2ccc(Cl)cc2)N1CCn1cnc2c(NCc3ccccc3)ncnc21`, the inhibition at 10 µM was 0% (not active).

In the case of `Cn1c(=O)c2c(S(C)(=O)=O)snc2n(C)c1=O`, the inhibition at 10 µM is 72.3% (not active).

`N#Cc1nc(-c2ccccc2F)oc1NCCc1ccccc1`: the inhibition at 10 µM was 4.7% (not active).

Turning to `CCOc1ccc(-c2nc(CNCCc3ccc(F)cc3)cs2)cc1`, the inhibition at 10 µM was 42.4% (not active).

Consider `O=C(C(Cc1c[nH]c2ccccc12)NS(=O)(=O)c1ccc(Cl)cc1)N1CCCCC1` (stereo not drawn), for which the inhibition at 10 µM is 23.3% (not active).

In the case of `c1ccc(Oc2ccc(-c3cc(N4CCOCC4)[nH]n3)cc2)cc1`, the inhibition at 10 µM is listed as 22.4% (not active).
